Laboratory results as given in paper PMC11081522, “In silico identification of a novel Cdc2‐like kinase 2 (CLK2) inhibitor in triple negative breast cancer” (Protein Science : A Publication of the Protein Society, 2024).
Where two headings read alike, the source gives them in different places.

Experiments:
Format in all cases: biochemical
[1] = target: T1, CLK2 (Cdc2-like kinase 2) (Homo sapiens, UniProt P49760); test: Z'LYTE FRET peptide kinase assay
T1 construct: commercial enzyme of Thermo Fisher SelectScreen service
T1 sequence (P49760 whole entry): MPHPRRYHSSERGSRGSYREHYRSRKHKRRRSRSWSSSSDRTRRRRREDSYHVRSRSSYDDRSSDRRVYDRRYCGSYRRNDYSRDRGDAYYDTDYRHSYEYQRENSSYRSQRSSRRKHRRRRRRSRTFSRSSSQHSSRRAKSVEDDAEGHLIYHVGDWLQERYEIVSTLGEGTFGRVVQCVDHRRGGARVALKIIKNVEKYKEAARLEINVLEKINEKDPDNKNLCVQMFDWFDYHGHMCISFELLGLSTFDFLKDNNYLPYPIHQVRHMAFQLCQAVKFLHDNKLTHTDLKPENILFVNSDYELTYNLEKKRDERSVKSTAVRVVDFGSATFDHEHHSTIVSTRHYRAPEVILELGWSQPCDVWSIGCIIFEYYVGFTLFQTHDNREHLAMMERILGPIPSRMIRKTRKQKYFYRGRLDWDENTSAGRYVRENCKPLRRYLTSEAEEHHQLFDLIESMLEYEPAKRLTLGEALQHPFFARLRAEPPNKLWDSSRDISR
Excerpt: Z'LYTE FRET peptide kinase assay on CLK2 (Cdc2-like kinase 2)

[2] = target: T2, CLK3 (Homo sapiens, UniProt P49761); test: kinase selectivity panel
T2 construct: kinase selectivity panel enzyme
T2 sequence (P49761 whole entry): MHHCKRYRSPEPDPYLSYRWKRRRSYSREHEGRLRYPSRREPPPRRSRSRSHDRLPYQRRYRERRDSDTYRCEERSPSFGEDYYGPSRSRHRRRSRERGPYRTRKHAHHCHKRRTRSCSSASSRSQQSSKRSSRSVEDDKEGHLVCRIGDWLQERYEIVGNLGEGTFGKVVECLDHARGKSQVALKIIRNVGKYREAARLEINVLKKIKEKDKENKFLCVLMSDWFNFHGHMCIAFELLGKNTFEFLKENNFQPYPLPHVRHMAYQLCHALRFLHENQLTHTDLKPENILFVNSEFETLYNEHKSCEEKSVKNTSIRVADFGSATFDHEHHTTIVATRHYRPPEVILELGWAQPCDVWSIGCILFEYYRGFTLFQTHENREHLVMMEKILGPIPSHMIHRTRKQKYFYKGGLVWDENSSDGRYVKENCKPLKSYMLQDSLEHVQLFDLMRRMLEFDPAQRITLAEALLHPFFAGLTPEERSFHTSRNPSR

[3] = target: T3, TTK (Threonine tyrosine kinase; Monopolar Spindle 1, Mps1) (Homo sapiens, UniProt P33981); test: kinase selectivity panel
T3 construct: kinase selectivity panel enzyme
T3 sequence (P33981 1-857): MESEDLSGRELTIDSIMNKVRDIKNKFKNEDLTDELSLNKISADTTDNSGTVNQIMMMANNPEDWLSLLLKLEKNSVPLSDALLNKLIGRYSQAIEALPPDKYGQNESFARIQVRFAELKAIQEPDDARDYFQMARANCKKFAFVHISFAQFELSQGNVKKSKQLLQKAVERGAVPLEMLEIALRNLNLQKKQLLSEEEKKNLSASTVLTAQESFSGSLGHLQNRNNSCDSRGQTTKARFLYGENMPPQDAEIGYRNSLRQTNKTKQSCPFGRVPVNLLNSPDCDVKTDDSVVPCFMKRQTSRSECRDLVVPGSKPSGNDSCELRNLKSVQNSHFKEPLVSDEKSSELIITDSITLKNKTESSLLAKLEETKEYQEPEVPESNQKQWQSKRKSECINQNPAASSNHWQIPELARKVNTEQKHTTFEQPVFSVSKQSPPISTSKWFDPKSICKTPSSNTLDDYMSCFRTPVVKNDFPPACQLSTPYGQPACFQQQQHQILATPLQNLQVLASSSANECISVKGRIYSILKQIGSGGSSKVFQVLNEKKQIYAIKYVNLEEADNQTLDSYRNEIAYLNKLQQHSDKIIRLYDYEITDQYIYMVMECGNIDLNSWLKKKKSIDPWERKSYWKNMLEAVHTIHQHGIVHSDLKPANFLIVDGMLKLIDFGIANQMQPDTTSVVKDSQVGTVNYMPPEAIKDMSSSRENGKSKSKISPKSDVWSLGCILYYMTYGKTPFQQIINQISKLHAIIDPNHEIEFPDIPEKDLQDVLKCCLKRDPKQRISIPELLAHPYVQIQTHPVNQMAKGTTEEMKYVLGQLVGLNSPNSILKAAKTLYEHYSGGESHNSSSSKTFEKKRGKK

Row | Compound | IC50 ([1]; ATP and peptide substrate, 1% DMSO, room temperature, 60 min) | IC50 [1] | inhibition at 1 µM [2] | inhibition at 1 µM [3]
1 | CSc1nc(Cl)cc(Sc2nc(N)nc3nc[nH]c23)n1 [compound 51564, 51564] | 1330 nM | – | – | –
2 | Nc1ncnc2oc(-c3ccccc3)c(-c3ccccc3)c12 [compound 153298, 153298] | – | 2240 nM | – | –
3 | CC(c1ccccc1)n1c2ccccc2c2c(N)ncnc21 (centres unmarked) [compound 670551, Compound 670551] | – | 620 nM | 46% | 43%
